Test system: α-glucosidase
Test: in-vitro assay for anti-diabetic activity (α-glucosidase inhibition)
Assay type: biochemical
Conditions: amount printed without volume or percent inhibition
Source text: The structure of compound 1 was established by the study of ^1H-^1H—COSY, HMQC, HMBC and NOESY spectral data (Table 1) as Formula 1.

SMILES: N=C1NCC(CCNC(=O)c2cc3c(cn2)[nH]c2ccccc23)N1 (stereo not shown) [Tiruchenduramine, tiruchenduramine]
- amount at which it inhibits α-glucosidase: 788 µg

From patent US20050222168A1, “Beta-carboline derived guanidine alkaloids, tiruchenduramine” (Council of Scientific and Industrial Research, priority 2004, published 2005)
